Test results: ChEMBL document CHEMBL2062390, “3-Phenyl-1H-5-pyrazolylamine-based derivatives as potent and efficacious inhibitors of FMS-like tyrosine kinase-3 (FLT3)” (Bioorg Med Chem Lett, 2012)
Calls of active or inactive are those of the source. No cut-off for these calls is given here.

What was measured:
[1] = target: T1, Receptor-type tyrosine-protein kinase FLT3 (Homo sapiens, UniProt P36888)
T1 sequence (P36888 whole entry): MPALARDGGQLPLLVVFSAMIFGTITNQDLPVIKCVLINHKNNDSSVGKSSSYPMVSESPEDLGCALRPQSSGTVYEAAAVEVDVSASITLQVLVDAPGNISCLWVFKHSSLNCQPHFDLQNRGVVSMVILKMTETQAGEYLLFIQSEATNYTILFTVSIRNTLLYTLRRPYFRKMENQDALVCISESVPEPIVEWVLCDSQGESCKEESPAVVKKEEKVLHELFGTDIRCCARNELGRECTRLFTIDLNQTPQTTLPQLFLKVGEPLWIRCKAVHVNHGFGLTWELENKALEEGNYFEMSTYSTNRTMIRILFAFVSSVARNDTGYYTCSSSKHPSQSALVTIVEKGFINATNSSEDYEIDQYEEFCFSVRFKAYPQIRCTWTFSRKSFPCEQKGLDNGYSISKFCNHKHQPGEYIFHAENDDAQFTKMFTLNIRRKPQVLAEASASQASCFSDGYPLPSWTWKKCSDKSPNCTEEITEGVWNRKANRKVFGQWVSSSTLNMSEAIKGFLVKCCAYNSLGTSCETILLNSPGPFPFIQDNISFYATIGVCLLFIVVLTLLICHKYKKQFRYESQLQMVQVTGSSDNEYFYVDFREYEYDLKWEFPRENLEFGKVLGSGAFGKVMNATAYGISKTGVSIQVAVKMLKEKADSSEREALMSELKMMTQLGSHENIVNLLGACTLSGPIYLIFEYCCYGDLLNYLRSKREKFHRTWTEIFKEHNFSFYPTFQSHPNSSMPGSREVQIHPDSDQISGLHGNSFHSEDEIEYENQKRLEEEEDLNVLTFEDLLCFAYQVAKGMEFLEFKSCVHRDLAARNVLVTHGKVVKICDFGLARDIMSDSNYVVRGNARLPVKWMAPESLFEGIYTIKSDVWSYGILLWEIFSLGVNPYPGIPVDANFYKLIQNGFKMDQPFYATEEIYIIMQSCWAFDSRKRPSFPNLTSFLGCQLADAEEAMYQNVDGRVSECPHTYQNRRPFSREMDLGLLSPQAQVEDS
Description: Inhibition of wild type FLT3

[2] = test system: MOLM-13; experiment: cells; details: Homo sapiens
Description: Antiproliferative activity against human MOLM13 cells expressing FLT3-ITD mutant

[3] = target: Vascular endothelial growth factor receptor 1 (Homo sapiens, UniProt P17948)
Vascular endothelial growth factor receptor 1, sequence (P17948 whole entry): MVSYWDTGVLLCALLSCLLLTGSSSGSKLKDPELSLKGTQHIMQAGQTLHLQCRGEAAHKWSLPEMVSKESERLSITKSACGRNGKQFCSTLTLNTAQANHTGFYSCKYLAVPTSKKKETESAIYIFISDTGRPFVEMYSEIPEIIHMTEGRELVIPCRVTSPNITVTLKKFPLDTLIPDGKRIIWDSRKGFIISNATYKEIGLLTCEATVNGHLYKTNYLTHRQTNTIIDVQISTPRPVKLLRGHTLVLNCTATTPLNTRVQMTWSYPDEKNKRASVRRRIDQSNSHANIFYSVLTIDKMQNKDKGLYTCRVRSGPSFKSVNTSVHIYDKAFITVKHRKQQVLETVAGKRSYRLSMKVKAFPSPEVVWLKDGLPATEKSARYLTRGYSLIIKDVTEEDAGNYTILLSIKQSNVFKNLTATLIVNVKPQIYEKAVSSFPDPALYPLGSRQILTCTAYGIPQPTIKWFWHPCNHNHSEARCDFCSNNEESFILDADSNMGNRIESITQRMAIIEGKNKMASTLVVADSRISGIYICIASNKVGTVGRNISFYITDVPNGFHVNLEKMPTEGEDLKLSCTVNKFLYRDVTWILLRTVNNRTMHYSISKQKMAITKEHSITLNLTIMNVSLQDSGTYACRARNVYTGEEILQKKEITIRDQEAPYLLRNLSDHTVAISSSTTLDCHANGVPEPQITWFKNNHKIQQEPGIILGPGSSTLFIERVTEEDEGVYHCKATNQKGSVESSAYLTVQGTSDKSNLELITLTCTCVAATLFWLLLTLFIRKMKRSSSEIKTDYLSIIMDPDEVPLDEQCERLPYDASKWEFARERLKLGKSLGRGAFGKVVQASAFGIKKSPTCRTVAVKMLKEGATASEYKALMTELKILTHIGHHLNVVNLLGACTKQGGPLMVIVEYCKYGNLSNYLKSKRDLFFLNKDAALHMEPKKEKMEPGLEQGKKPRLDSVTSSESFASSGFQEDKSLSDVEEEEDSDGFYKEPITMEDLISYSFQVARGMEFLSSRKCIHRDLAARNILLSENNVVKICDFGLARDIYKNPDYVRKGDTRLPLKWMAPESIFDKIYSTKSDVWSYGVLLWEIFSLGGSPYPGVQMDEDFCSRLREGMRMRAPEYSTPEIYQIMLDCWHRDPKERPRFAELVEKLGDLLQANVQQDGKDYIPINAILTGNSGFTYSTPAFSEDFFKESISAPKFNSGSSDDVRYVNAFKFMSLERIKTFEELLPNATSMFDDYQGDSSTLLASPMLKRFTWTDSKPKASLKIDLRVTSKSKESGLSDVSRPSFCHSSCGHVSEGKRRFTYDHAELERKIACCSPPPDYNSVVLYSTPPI

[4] = target: T2, Aurora kinase A (Homo sapiens, UniProt O14965)
T2 sequence (O14965 whole entry): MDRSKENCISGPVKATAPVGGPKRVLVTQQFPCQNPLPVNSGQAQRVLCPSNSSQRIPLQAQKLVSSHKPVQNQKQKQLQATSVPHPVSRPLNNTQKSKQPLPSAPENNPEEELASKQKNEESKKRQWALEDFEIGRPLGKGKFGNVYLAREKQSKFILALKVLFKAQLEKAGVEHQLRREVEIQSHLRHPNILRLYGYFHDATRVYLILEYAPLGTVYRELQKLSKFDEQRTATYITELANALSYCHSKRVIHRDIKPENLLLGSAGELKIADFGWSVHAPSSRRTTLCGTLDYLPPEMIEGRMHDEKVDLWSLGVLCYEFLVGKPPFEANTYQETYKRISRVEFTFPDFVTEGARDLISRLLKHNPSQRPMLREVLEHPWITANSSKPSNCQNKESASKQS

[5] = target: Vascular endothelial growth factor receptor 2 (Homo sapiens, UniProt P35968)
Vascular endothelial growth factor receptor 2, sequence (P35968 whole entry): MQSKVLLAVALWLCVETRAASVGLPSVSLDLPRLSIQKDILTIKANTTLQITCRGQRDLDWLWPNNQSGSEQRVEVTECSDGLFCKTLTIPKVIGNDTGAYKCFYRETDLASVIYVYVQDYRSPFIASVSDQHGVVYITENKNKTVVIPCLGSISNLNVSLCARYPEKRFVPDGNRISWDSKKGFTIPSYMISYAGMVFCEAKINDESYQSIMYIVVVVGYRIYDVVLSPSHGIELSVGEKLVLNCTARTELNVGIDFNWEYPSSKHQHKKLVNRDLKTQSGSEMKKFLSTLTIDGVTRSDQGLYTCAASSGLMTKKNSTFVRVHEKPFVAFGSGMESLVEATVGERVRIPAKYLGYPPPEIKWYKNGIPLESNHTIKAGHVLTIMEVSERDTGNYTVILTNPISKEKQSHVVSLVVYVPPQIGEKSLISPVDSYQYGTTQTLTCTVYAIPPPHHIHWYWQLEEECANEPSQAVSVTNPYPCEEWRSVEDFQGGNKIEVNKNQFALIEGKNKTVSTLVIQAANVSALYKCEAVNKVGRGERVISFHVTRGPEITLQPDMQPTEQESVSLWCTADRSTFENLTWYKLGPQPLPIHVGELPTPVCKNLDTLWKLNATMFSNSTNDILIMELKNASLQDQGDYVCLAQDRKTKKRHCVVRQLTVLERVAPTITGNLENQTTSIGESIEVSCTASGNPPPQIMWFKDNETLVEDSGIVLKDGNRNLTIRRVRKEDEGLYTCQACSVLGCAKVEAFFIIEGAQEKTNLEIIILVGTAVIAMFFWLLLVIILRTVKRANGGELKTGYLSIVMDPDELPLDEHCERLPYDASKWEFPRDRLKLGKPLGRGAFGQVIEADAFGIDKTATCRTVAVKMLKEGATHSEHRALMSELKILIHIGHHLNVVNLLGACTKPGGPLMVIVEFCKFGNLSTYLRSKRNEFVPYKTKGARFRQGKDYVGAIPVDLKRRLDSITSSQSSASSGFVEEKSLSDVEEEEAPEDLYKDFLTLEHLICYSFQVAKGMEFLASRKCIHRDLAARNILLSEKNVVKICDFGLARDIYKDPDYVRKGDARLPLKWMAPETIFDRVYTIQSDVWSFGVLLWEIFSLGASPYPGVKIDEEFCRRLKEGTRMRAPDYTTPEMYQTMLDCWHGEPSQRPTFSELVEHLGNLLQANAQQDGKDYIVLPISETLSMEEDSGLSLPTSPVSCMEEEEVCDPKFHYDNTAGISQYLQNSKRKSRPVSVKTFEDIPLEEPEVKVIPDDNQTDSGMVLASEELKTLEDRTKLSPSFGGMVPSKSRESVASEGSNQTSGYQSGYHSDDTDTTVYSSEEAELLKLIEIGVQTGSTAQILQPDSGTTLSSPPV

[6] = AUC (0 to 4 hrs) in rat at 2 mg/kg, iv; type: ADME, organism-based; set-up: time < 4 hr, dose 2 mg/kg, route intravenous; details: plasma
[7] = Half life in Sprague-Dawley rat plasma at 2 mg/kg, iv; type: ADME, organism-based; set-up: dose 2 mg/kg, route intravenous
[8] = test system: MV4-11; experiment: Antiproliferative activity against human MV4-11 cells expressing FLT3-ITD mutant; type: functional
[9] = target: Receptor-type tyrosine-protein kinase FLT3 (Homo sapiens) (UniProt P36888); experiment: (§1) Inhibition of FLT3 autophosphorylation in human MV4-11 cells after 2 hrs by Western blot analysis; type: cell-based
[10] = target: T1, Receptor-type tyrosine-protein kinase FLT3; experiment: as §1; type: cell-based
[11] = Plasma clearance in Sprague-Dawley rat at 2 mg/kg, iv; type: ADME, organism-based; set-up: dose 2 mg/kg, route intravenous
[12] = Plasma concentration in Sprague-Dawley rat at 2 mg/kg, iv at 24 hrs; type: ADME, organism-based; set-up: dose 2 mg/kg, route intravenous
[13] = Oral bioavailability in Sprague-Dawley rat; type: ADME, organism-based; details: in vivo
[14] = test system: MOLM-13; experiment: Antitumor activity against human MOLM13 cells expressing FLT3-ITD mutant xenografted in athymic nude NU-Fox1 mouse assessed as tumor regression at 25 mg/kg, iv administered as single dose; type: functional, organism-based; set-up: dose 25 mg/kg
[15] = Volume of distribution in Sprague-Dawley rat at 2 mg/kg, iv; type: ADME, organism-based; set-up: dose 2 mg/kg, route intravenous; details: in vivo
[16] = Cmax in Sprague-Dawley rat at 2 mg/kg, iv at 5 mins; type: ADME, organism-based; set-up: dose 2 mg/kg, route intravenous; details: in vivo
[17] = AUC in Sprague-Dawley rat at 2 mg/kg, iv; type: ADME, organism-based; set-up: dose 2 mg/kg, route intravenous; details: plasma
[18] = test system: MOLM-13; experiment: Antitumor activity against human MOLM13 cells expressing FLT3-ITD mutant xenografted in athymic nude NU-Fox1 mouse assessed as tumor regression at 25 mg/kg, iv administered QD on days 1 to 5 and 8 to 12 measured up to 30 days; type: functional, organism-based; set-up: dose 25 mg/kg
[19] = test system: Mus musculus; experiment: Toxicity in athymic nude NU-Fox1 mouse xenografted with human MOLM-13 cells assessed as body weight loss at 25 mg/kg, iv administered QD on days 1 to 5 and 8 to 12 measured up to 30 days; type: organism-based; set-up: dose 25 mg/kg, route intravenous; details: in vivo, 720 h

Compound | IC50 [1] [nM] | GI50 [2] [nM] | IC50 [3] [nM] | IC50 [4] [nM] | IC50 [5] [nM] | also measured
CN1CCN(c2ccc(C(=O)Nc3cc(-c4ccc(CNC(=O)Oc5ccccc5)cc4)n[nH]3)cc2)CC1 | 16 | 20 | 54 | > 1000 | 92 | 
CN1CCN(c2ccc(C(=O)Nc3cc(-c4ccc(CNS(=O)(=O)c5ccccc5)cc4)n[nH]3)cc2)CC1 | 140 | 47 | > 1000 | 1000 | > 1000 | 
Cc1nc(Nc2cc(-c3ccc(CNC(=O)OCc4ccccc4)cc3)n[nH]2)cc(N2CCN(C)CC2)n1 | 18 | 2 | 420 | 430 | 310 | 
CN1CCN(c2ccc(C(=O)Nc3cc(-c4ccc(NC(=O)OCc5ccccc5)cc4)n[nH]3)cc2)CC1 | 7 | 16 | 200 | > 1000 | 48 | 
CN1CCN(c2ccc(C(=O)Nc3cc(-c4ccc(NC(=O)Oc5ccccc5)cc4)n[nH]3)cc2)CC1 | 12 | 5 | 320 | > 1000 | 180 | 
Cc1nc(Nc2cc(-c3ccc(CNC(=O)OCc4cc(C)on4)cc3)n[nH]2)cc(N2CCN(C)CC2)n1 | 5 | 4 | > 1000 | > 1000 | > 1000 | 
CN1CCN(c2ccc(C(=O)Nc3cc(-c4ccc(NS(=O)(=O)c5ccccc5)cc4)n[nH]3)cc2)CC1 |  | 500 | > 1000 | > 1000 | > 1000 | 
Cc1nc(Nc2cc(-c3ccc(CNC(=O)OCc4cccnc4)cc3)n[nH]2)cc(N2CCN(C)CC2)n1 | 4 | 2 | > 1000 | > 1000 | > 1000 | 
O=C(Nc1ccc(-c2cc(NC(=O)c3ccc(OCCN4CCCC4)cc3)[nH]n2)cc1)Oc1ccccc1 | 40 | 47 | > 1000 | > 1000 | 300 | 
Cc1nc(Nc2cc(-c3ccc(CNC(=O)OCc4ccccc4)cc3)n[nH]2)cc(N2CCNCC2)n1 | 17 | 6 | 82 | 350 | 190 | 

The next lines start with results.

IC50 [1] [nM] | GI50 [2] [nM] | IC50 [3] [nM] | IC50 [4] [nM] | IC50 [5] [nM] | Compound | also measured
43 | 2 | 590 | > 1000 | 480 | Cc1cc(COC(=O)NCc2ccc(-c3cc(NC(=O)c4ccc(OCCN5CCCC5)cc4)[nH]n3)cc2)no1 | AUC(0-t) at 4 h [6]: 448 ng·h/mL
72 | 5 | > 1000 | > 1000 | > 1000 | Cc1nc(Nc2cc(-c3ccc(CNC(=O)OCc4cc(C)on4)cc3)n[nH]2)cc(N2CCN(CCO)CC2)n1 | AUC(0-t) at 4 h [6]: 443 ng·h/mL
52 | 4 | > 1000 | > 1000 | > 1000 | Cc1cc(COC(=O)NCc2ccc(-c3cc(NC(=O)c4ccc(OCCN5CCOCC5)cc4)[nH]n3)cc2)no1 | AUC(0-t) at 4 h [6]: 1030 ng·h/mL
17 | 48 | > 1000 | > 1000 | 560 | CCOC(=O)NCc1ccc(-c2cc(NC(=O)c3ccc(N4CCN(C)CC4)cc3)[nH]n2)cc1 | 
10 | 2 | 290 | 170 | 240 | Cc1nc(Nc2cc(-c3ccc(CNC(=O)OCc4ccccc4)cc3)n[nH]2)cc(N2CCN(CCO)CC2)n1 | 
21 | 3 | > 1000 | > 1000 | > 1000 | Cc1nc(Nc2cc(-c3ccc(CNC(=O)OCc4cccnc4)cc3)n[nH]2)cc(N2CCN(CCO)CC2)n1 | 
6 | 2 | 20 | 880 | 100 | CN1CCN(c2ccc(C(=O)Nc3cc(-c4ccc(CNC(=O)OCc5ccccc5)cc4)n[nH]3)cc2)CC1 | 
14 | 2 | 250 | > 1000 | 220 | CN1CCN(c2ccc(C(=O)Nc3cc(-c4ccc(CNC(=O)OCc5cccnc5)cc4)n[nH]3)cc2)CC1 | AUC(0-t) at 4 h [6]: 272 ng·h/mL
17 | 8 | 370 | 590 | 370 | O=C(NCc1ccc(-c2cc(NC(=O)c3ccc(OCCN4CCOCC4)cc3)[nH]n2)cc1)OCc1ccccc1 | 
27 | 1 | 350 | > 1000 | 370 | Cc1cc(COC(=O)NCc2ccc(-c3cc(NC(=O)c4ccc(N5CCN(C)CC5)cc4)[nH]n3)cc2)no1 | 
20 | 7 | > 1000 | > 1000 | > 1000 | O=C(NCc1ccc(-c2cc(NC(=O)c3ccc(OCCN4CCOCC4)cc3)[nH]n2)cc1)OCc1cccnc1 | 
10 | 2 | 70 | > 1000 | 120 | O=C(NCc1ccc(-c2cc(NC(=O)c3ccc(OCCN4CCCC4)cc3)[nH]n2)cc1)OCc1ccccc1 | half-life [7]: 6.2 h; GI50 [8]: 3 nM; inhibition [9]: Dose-dependent effect; IC50 [10]: 1 nM; clearance [11]: 16.2 mL/min/kg; concentration at 24 h [12]: 17 nM; bioavailability [13]: 5%; Activity [14]: Active; AUC(0-t) at 4 h [6]: 1380 ng·h/mL; Vd [15]: 6 L/kg; Cmax [16]: 5430 nM; AUC [17]: 5.79 µM·h; Activity [18]: Active; Activity [19]: Non-toxic
7 | 4 | 320 | > 1000 | 170 | CN1CCN(Cc2ccc(C(=O)Nc3cc(-c4ccc(CNC(=O)OCc5ccccc5)cc4)n[nH]3)cc2)CC1 | 
19 | 9 | 180 | > 1000 | 240 | O=C(NCc1ccc(-c2cc(NC(=O)c3ccc(OCCCN4CCCC4)cc3)[nH]n2)cc1)OCc1ccccc1 | 
35 | 8 | > 1000 | > 1000 | > 1000 | O=C(NCc1ccc(-c2cc(NC(=O)c3ccc(OCCN4CCCC4)cc3)[nH]n2)cc1)OCc1cccnc1 | AUC(0-t) at 4 h [6]: 266 ng·h/mL
